Source: patent US9695195B2, “5-HT3 receptor antagonists” (Takeda Pharmaceutical Company Limited, priority 2012, dated 2017)

System: subchronic PCP-induced impairment in cognition memory
Experiment: Rodent novel object recognition (NOR) assay in phencyclidine-induced cognitive deficits modeling schizophrenia
Type: in vivo, rat
Conditions: PCP-treated rats
Excerpt: The aim of this study was to investigate the ability of the compounds of the invention to improve subchronic PCP-induced impairment in cognition memory using the NOR task in the rat, a paradigm of relevance to cognition in schizophrenia. Adult male Sprague-Dawley rats (250-350 g; Harlan, USA) were used for the experiments. Animal were acclimated to the facility for 7 days prior to experimentation. Seven groups of 14 animals per group were used for the experiment. One group of animals received vehicle (0.9% saline twice daily) and the remaining six groups received PCP (2.5 mg/kg, s.c. twice daily) for 7 days, followed by 5-days drug free. On the test day, the animals were allowed to acclimate to the testing room for 30 min prior to initiation of experiments. Experiments were carried out in a white plexiglass chamber, designated as experimental arena. The arena was placed in a dark experimental room that was illuminated by a halogen lamp, providing a dim light to the arena.
Animals were placed in the arena for a 5 minute period to freely explore the test chamber in the absence of objects (habituation). Animals were then returned to their home cage immediately upon completion of habituation for a 120 min period. (1R,3R,5S)-8-Methyl-8-azabicyclo[3.2.1]octan-3-yl 1-(2,2,2-trifluoroethyl)-1H-indole-3-carboxylate (0.1, 1, 10 mg/kg s.c.), or vehicle (veh, saline) was administered 120 min prior to T1 and galantamine (5 mg/kg, i.p.) was administered 30 min prior to T1. Animals were returned to the arena which contained two identical objects (plastic balls) placed at one end of the arena (acquisition, T1), and allowed to explore for a 5 min period. The time spent exploring the two objects was recorded. Animals were once again returned to the home cage for a period of 120 min (ITI).
ITI was followed by the retention phase (T2) where one of the objects presented in the first trial was replaced by a novel object and animals were allowed to explore for an additional 5 min period. Again, the time spent exploring the two objects was recorded.
For the retention phase, the differences between the time spent exploring the familiar object and the novel object were examined. All sessions were recorded and scored blindly for the time exploring objects. Exploration is defined as touching the object or directing nose towards object at a distance less that 2 cm. A minimal exploration criterion was used such that only animals with exploration time of greater than 5 seconds per object were included.
Comparisons of all treatment groups were conducted using a one-way ANOVA followed by a Bonferroni's post hoc test for multiple comparisons.

SMILES	discrimination between familiar and novel objects (galantamine 5 mg/kg i.p., 2 h ITI)	discrimination between familiar and novel objects (0.1 mg/kg s.c.)	discrimination between familiar and novel objects (1 mg/kg s.c.)	discrimination between familiar and novel objects (10 mg/kg s.c.)
COc1ccc2c3c1O[C@H]1C[C@@H](O)C=C[C@@]31CCN(C)C2 [Galantamine, galantamine, reference compound]	statistically significant discrimination	–	–	–
CN1[C@@H]2CC[C@H]1C[C@@H](OC(=O)c1cn(CC(F)(F)F)c3ccccc13)C2	–	did not demonstrate a statistically significant discrimination	demonstrated a statistically significant discrimination	demonstrated a statistically significant discrimination
